Assay results published in article PMC5380659, “Unique charge-dependent constraint on collagen recognition by integrin α10β1” (Matrix Biology, 2017).
“Also recorded” adds a separate entry of the source.

Legend:
[1] = tested on: collagen-binding integrins; parameters: method as in 3 sources, ref [7], [8] = [7]; PMID 10778855; doi:10.1016/S0092-8674(00)80622-4; 7 Emsley J. Knight C.G. Farndale R.W. Barnes M.J. Liddington R.C. Structural basis of collagen recognition by integrin alpha2beta1 Cell 101 1 2000 47 56 10778855 10.1016/S0092-8674(00)80622-4 || [8]; PMID 16326707; doi:10.1074/jbc.M509818200; 8 Raynal N. Hamaia S.W. Siljander P.R. Maddox B. Peachey A.R. Fernandez R. Foley L.J. Slatter D.A. Jarvis G.E. Farndale R.W. Use of synthetic peptides to locate novel integrin alpha2beta1-binding moti ||| ref [8], [10] = [8]; PMID 16326707; doi:10.1074/jbc.M509818200; 8 Raynal N. Hamaia S.W. Siljander P.R. Maddox B. Peachey A.R. Fernandez R. Foley L.J. Slatter D.A. Jarvis G.E. Farndale R.W. Use of synthetic peptides to locate novel integrin alpha2beta1-binding moti || [10]; PMID 16043429; doi:10.1074/jbc.M502431200; 10 Kim J.K. Xu Y. Xu X. Keene D.R. Gurusiddappa S. Liang X. Wary K.K. Hook M. A novel binding site in collagen type III for the integrins, alpha 1beta 1 and alpha 2beta 1 J. Biol. Chem. 280 2005 32512 ||| ref [11] = [11]; PMID 10986291; doi:10.1074/jbc.M007668200; 11 Xu Y. Gurusiddappa S. Rich R.L. Owens R.T. Keene D.R. Mayne R. Hook A. Hook M. Multiple binding sites in collagen type I for the integrins α1β1 and α2β1 J. Biol. Chem. 275 2000 38981 38989 10986291; details: ref [11]; cited from earlier work
Excerpt: Many related motifs have now been identified using the Collagen Toolkits developed in this laboratory for the purpose. These are libraries of overlapping peptides of 27 amino acids of collagen primary sequence (guest sequence), flanked ...

[2] = tested on: human recombinant GST-α10 I domain; test: Solid-phase binding assay (SPBA) of wild-type α10 I domain; details: short THPs, 2 mM Mg^2 +, 1 h, Fig. 4A
Procedure: The α10 I domain was applied to the collagen II and III Toolkits in the presence or absence of Mg^2 +, and was detected using anti-GST, as described in Experimental: data are shown in Fig. 1. The background response is indicated by wells coated with the control peptide, GPP10 (corresponding to the host sequence), or BSA.
(§1) I domain adhesion was determined colorimetrically, as described, here termed solid phase binding assay (SPBA). Peptides were coated at 10 μg/ml for 1 h at 22 °C on Immulon-2 HB 96-well plates (Thermo Life Sciences, Basingstoke, UK), and blocked for 1 h with 200 μl of TBS containing 50 mg/ml bovine serum albumin. Wells were washed four times with 200 μl of the adhesion buffer (TBS with 1 mg/ml bovine serum albumin) before adding 100 μl of adhesion buffer containing 10 μg/ml of recombinant GST I domains in the presence of either 2 mM MgCl2 or EDTA for 1 h at room temperature. Wells were washed five times with 200 μl of adhesion buffer containing MgCl2 or EDTA, before adding 100 μl of adhesion buffer containing the anti-GST-HRP conjugate at 1:10,000 dilution for 1 h at room temperature. After washing, colour was developed using an ImmunoPure TMB Substrate Kit (Pierce) according to the manufacturer's instructions.

C2C12-α10β1 cells [3] = test: LDH-based SPBA of C2C12-α10β1 cell adhesion; parameters: species or system mouse; details: short THPs, 2 mM Mg^2 +, 1 h, Fig. 4B
Procedure: The mouse myoblast cell line, C2C12-α10β1 clone, expresses α10β1 as its sole collagen-binding integrin [16]. To investigate the binding of α10β1 to collagen in a cellular and whole integrin context, therefore, the adhesion of C2C12-α10β1 cells to Toolkits II and III was performed using two different approaches. First, SPBA was used, with lactate dehydrogenase to report the presence of adherent cells, after lysis, as described in Experimental. […] C2C12-α10B1 cells generally bound more prominently to those weaker peptides that supported just-observable binding of free I-domain. This may reflect avidity of the receptor-populated cell surface for the peptide-coated wells, or perhaps up-regulation of integrin affinity following receptor engagement. It is also possible that some cell binding reflects specific indirect interactions. For example, fibronectin, available either by intrinsic expression or from the serum supplement, binds well to II-44, and can also bind integrin αVβ3 [21].
Fig. 2 Binding of α10β1-transfected C2C12 cells to Collagen Toolkits. 96-well plates were coated with peptides as for Fig. 1, then C2C12-α10β1 cells (5 × 10^4 per well) were added and incubated for 1 h in the presence of either 2 mM MgCl2 or 2 mM EDTA as above. A: binding to Toolkit II. B: binding to Toolkit III.
(§2) The mouse myoblast cell line, C2C12, (control and transfectants, C2C12-α1β1, C2C12-α2β1, C2C12-α10β1 or C2C12-α11β1) was maintained in RPMI medium containing 10% fetal bovine serum, 2 mM glutamine, 100 IU/ml penicillin, 100 μg/ml streptomycin, and 2.5 μg/ml amphotericin. Cells were harvested by centrifugation, washed, and suspended at 0.5 × 10^6/ml in Tris-buffered saline supplemented with 5.5 mM glucose and either 2 mM EDTA or 2 mM MgCl2. SPBA was performed as follows: 100 μl of the cell suspension was added to peptide-coated wells [42] at 20 °C for 60 min. Cell adhesion was determined colorimetrically after lysis, using a lactate dehydrogenase (LDH)-based cell detection kit (Roche Diagnostics) according to the supplier's instructions.

α10β1 [4] = test: Overall recognition by α10β1 (I domain and C2C12-α10β1 cells, summary); details: abstract and discussion; I domain and/or C2C12-α10β1 cells
Procedure: as §1, §2
(§3) To quantitate C2C12-α10β1 binding to collagen peptides, we used the impedance-based xCELLigence system (Acea) that allows label-free, dynamic monitoring of cell adhesion in real-time. The assay system expresses the adhesion-dependent rise in well impedance in units of cell index (CI), defined as (Rn − Rb) / 15; where Rn is the electrical impedance of each cell-containing well and Rb is the background impedance of the well with medium alone

C2C12-α10β1 cells [5] = test: xCELLigence real-time adhesion of C2C12-α10β1 cells; format: cell-based, mouse; details: 2.5 × 10^4 cells/well, 2 mM Mg^2 +, over 1 h, Fig. 3A
Procedure: Fig. 3 Binding of α10β1-transfected C2C12 cells to collagens and selected Toolkit peptides. Peptides or collagens were coated on ePlates as described, then cells were added in the presence of 2 mM Mg^2 + or EDTA, and Cell Index value was collected over 1 h. […] B: time courses are shown of adhesion to selected Toolkit peptides or GPP-10.
as §3
Briefly, C2C12 cells were seeded at 2.5 × 10^4 cells/well in an E-plate (Roche Applied Science) pre-coated with peptides as for SPBA, and CI was measured for up to 2 h.

α10β1 [6] = tested on: α10β1; parameters: method as in not given; details: ref not given; cited from earlier work
Excerpt: In the setting of cartilage, collagen III, although enriched in the pericellular environment, is much less abundant than collagen II [22], and its expression increases with age or with th ...

integrin α1β1 = tested on: integrin α1β1; parameters: method as in 3 sources, ref [4]; PMID 19693543; doi:10.1007/s00441-009-0834-6; 4 Barczyk M. Carracedo S. Gullberg D. Integrins Cell Tissue Res. 339 1 2010 269 280 19693543 10.1007/s00441-009-0834-6 PMC2784866 ||| ref [12] = [12]; PMID 22654115; doi:10.1074/jbc.M112.353144; 12 Hamaia S.W. Pugh N. Raynal N. Nemoz B. Stone R. Gullberg D. Bihan D. Farndale R.W. Mapping of potent and specific binding motifs, GLOGEN and GVOGEA, for integrin alpha1beta1 using collagen toolkits ||| ref not given; details: ref [4]; cited from earlier work
Excerpt: The collagen-binding integrin family is complete, with four established members, α1β1, α2β1, α10β1 and α11β1. These are highly-conserved, heterodimeric receptors with an important structural feature in common, the presence of an I (inserted) domain which contains the metal ion-dependent adhesion site (MIDAS). The MIDAS is a constellation of electronegative residues at the distal surface of this 200-residue domain that, in the resting, non-ligated state, can co-ordinate a Mg^2 + ion. […] Many related motifs have now been identified using the Collagen Toolkits developed in this laboratory for the purpose. These are libraries of overlapping peptides of 27 amino acids of collagen primary sequence (guest sequence), flanked ... || Why would collagen II differ in this respect?

Substance: GASGER [integrin motif in collagens I, XXIII]
- Ligand of collagen-binding integrins, weak motifs [1]: weak ligands

Substance: GLOGER [short triple-helical peptide containing GLOGER]
- Binding of α10 I domain to short triple-helical peptides [2]: less well
- Adhesion of C2C12-α10β1 cells to short triple-helical peptides (C2C12-α10β1 cells [3]): bound strongly
- Recognition by α10β1, summary (α10β1 [4]): binds α10β1 better than GFOGER, second only to GLOGEN; also recorded: α10β1-positive

Substance: GLSGER [short triple-helical peptide containing GLSGER]
- Adhesion of C2C12-α10β1 cells to short triple-helical peptides (C2C12-α10β1 cells [3]): bound strongly
- Ligand of collagen-binding integrins, weak motifs [1]: weak ligands
- Recognition by α10β1, summary (α10β1 [4]): α10β1-positive

Substance: collagen II: intact collagen II
- Cell adhesion to collagens (Cell Index, endpoint) (C2C12-α10β1 cells [5]): bound quite well
- Reported binding of α10β1 to collagens (α10β1 [6]): binds

Substance: collagen IV: intact collagen IV
- Cell adhesion to collagens (Cell Index, endpoint) (C2C12-α10β1 cells [5]): better
- Preferred ligand of α1β1 (integrin α1β1): preferred ligand
- Reported binding of α10β1 to collagens (α10β1 [6]): better ligand
